# [C(1O2)] = modified PNA monomer acting as cytosine, C(pOq) type, 1O2; [A(5)] = modified PNA monomer acting as adenine, A(p) type, p=5; [G(6)] = modified PNA monomer acting as guanine, G(p) type, p=6; {Fethoc} = N-terminal Fethoc cap; {NH2} = C-terminal amide
# Tests used:
# [1] = tested on: rats with diabetes-induced peripheral neuropathic pain (DPNP); test: Reversal of allodynia (von Frey) in rats with diabetes-induced peripheral neuropathic pain; assay type: in vivo, rat; conditions: 100 pmole/Kg subcutaneous in Days 11, 13, 15, 17 and 19
# Protocol: “SCN-ASO 7”, “SCN-ASO 8”, “SCN-ASO 21”, “SCN-ASO 35”, “SCN-ASO 36” and “SCN-ASO 37” were evaluated for their ability to reverse the allodynia in rats with diabetes-induced peripheral neuropathic pain (DPNP). In this example, the six SCN9A ASOs targeting a total of five splice sites were evaluated for their ability to reverse the allodynia induced by diabetic neuropathy in rats.
# [Induction of DPNP and Grouping] Diabetes was induced in rats by an intraperitoneal injection of streptozotocin at 60 mg/Kg in Day 0. In Day 10, rats with DPNP were randomly assigned to […] of negative control (vehicle only), “SCN-ASO 7” 100 pmole/Kg, “SCN-ASO 8” 100 pmole/Kg, “SCN-ASO 21” 100 pmole/Kg, “SCN-ASO 35” 100 pmole/Kg, “SCN-ASO 36” 100 pmole/Kg, and “SCN-ASO 37” 100 pmole/Kg. The animals were grouped based on the von Frey scores of individual animals in Day 10. (N=8-9 per group) Allodynia was scored using a set of microfilaments (Touch Test®) according to the “Up & Down” method. [J Neurosci. Methods vol 53(1), 55-63 (1994)]
# [ASO Treatment and von Frey Scoring] ASO solutions for injection were prepared by serially diluting aqueous mother stock solutions of the SCN9A ASOs to 100 nM in PBS (phosphate buffered saline). Animals were subcutaneously administered with ASO at 1 mL/Kg in Days 11, 13, 15, 17 and 19. Von Frey scoring was carried out 2 hours post dose in Days 11, 13, 15, 17 and 19. Von Frey scoring was additionally performed in Days 21 and 23 in order to assess the duration of the therapeutic activity after the final dosing. Daily von Frey scores were evaluated for statistical significance by student's t-test against the negative control group (vehicle only, i.e., PBS).
# mdx mice = test: Grip test in mdx mice chronically administered; assay type: in vivo, mouse; conditions: mdx mice, 10, 50 or 200 pmole/Kg subcutaneous chronic, Week 0 to 30
# Protocol: “DMD-ASO 1” was evaluated by chronically administering to mdx mice for its ability to improve muscle function by grip test, to induce exon skipping, to upregulate the expression of the full-length dystrophin (i.e., dystrophin protein with the C-terminus encoded) by IHC, and to improve the muscular integrity by histopathology with H&E staining as described below.
# [Grouping & ASO Treatment] Male mdx mice (7 weeks old) were randomly assigned to 4 groups of 0 (mdx negative control), 10, 50, and 200 pmole/Kg “DMD-ASO 1” based on individual grip strength scores by grip test. (N=12 per group) A satellite group of 12 male C57BL/6 mice (7 weeks old) was included in this study as the wild type negative control group for the full-length dystrophin expression level.
# The 50 and 200 pmole/Kg group subcutaneously received “DMD-ASO 1” as dissolved in PBS, 2× per week until the final sacrifice in Week 43. In the meantime, the 10 pmole/Kg group subcutaneously received “DMD-ASO 1” initially 2× per week during Week 0 to 8, and 3× per week afterwards to increase the ASO exposure.
# [Muscle Function by Grip Test] Muscle function was evaluated on a weekly basis by grip strength on a grip strength-meter (Cat. Number 47,200, Ugo Basile) according to the literature. [J. Appl. […] The grip strength scores by group were evaluated for statistical significance by student's t-test against the mdx negative control group.
Substance,maximum therapeutic efficacy based on the von Frey scores in Day 19 [1],increase of grip strength compared to the mdx negative control group (mdx mice)
"Fethoc-AC(1O2)T-TA(5)C-G(6)CA-A(5)AA(5)-AC(1O2)A-A(5)-NH2 (ACTTACGCAAAAACAA; all peptide nucleic acid (PNA), [C(1O2)] at 2, 14, [A(5)] at 5, 10, 12, 16, [G(6)] at 7, 5' {Fethoc}, 3' {NH2}; peptide nucleic acid written N to C) [SCN-ASO 7]",~76%,
"Fethoc-A(5)GA-G(6)CC(1O2)-TCA-A(5)AA(5)-T-NH2 (antisense AGAGCCTCAAAAT; Fethoc N-cap, C-terminal amide, chemistry not fully specified) [DMD-ASO 1]",,30-50%

# From patent publication US12624068B2, “Exon skipping by peptide nucleic acid derivatives” (OliPass Corporation, priority 2016, dated 2026)
